Where a name gives a salt, the structure may show the parent alone.
Tests used:
Experiment in all cases: Spore germination test
Assay type in all cases: cell-based
Alternaria solani = settings: AS, 48 hours
Outline: (§1)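 Compound was delivered in acetone into water agar at final 40, 10, 2.5 and 1 ppm. Alternaria solani and Botrytis cinerea spores were applied as sterile-water suspensions, while Erysiphe polygoni and Uromyces phaseoli spores were brushed on from infected leaves. After 48 h at 24° C., percentage germination was converted to a rating.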

Erysiphe polygoni = settings: EP, 48 hours
Outline: as §1

Uromyces phaseoli = settings: UP, 48 hours
Outline: as §1

Molecule	Spore Germination Rating (Alternaria solani; 1.0 ppm)	Spore Germination Rating (Alternaria solani; 2.5 ppm)	Spore Germination Rating (Alternaria solani; 10 ppm)	Spore Germination Rating (Alternaria solani; 40 ppm)	Spore Germination Rating (Erysiphe polygoni; 1.0 ppm)	Spore Germination Rating (Erysiphe polygoni; 2.5 ppm)	Spore Germination Rating (Erysiphe polygoni; 10 ppm)	Spore Germination Rating (Erysiphe polygoni; 40 ppm)	Spore Germination Rating (Uromyces phaseoli; 1.0 ppm)	Spore Germination Rating (Uromyces phaseoli; 2.5 ppm)	Spore Germination Rating (Uromyces phaseoli; 10 ppm)	Spore Germination Rating (Uromyces phaseoli; 40 ppm)	Spore Germination Rating (Alternaria solani; 2.5 ppm, hydrochloride)	Spore Germination Rating (Alternaria solani; 10 ppm, hydrochloride)	Spore Germination Rating (Uromyces phaseoli; 1.0 ppm, hydrochloride)	Spore Germination Rating (Uromyces phaseoli; 2.5 ppm, hydrochloride)	Spore Germination Rating (Uromyces phaseoli; 10 ppm, hydrochloride)	Spore Germination Rating (Uromyces phaseoli; 40 ppm, hydrochloride)
3-chloro-5-(bromophenoxy)-4H-1,2,6-thiadiazin-4-one [Compound 33]	1 (10-40)	0 (0-10)	0 (0-10)	0 (0-10)	0 (0-10)	0 (0-10)	0 (0-10)	0 (0-10)	0 (0-10)	0 (0-10)	0 (0-10)	0 (0-10)						
O=c1c(Cl)nsnc1Oc1ccccc1 [Compound 2, 3-chloro-5-phenoxy-4H--1,2,6-thiadiazin-4-one]	4 (80-100)	0 (0-10)	0 (0-10)	0 (0-10)	4 (80-100)	4 (80-100)	3 (60-80)	1 (10-40)	2 (40-60)	2 (40-60)	0 (0-10)	0 (0-10)						
Cc1ccc(Oc2nsnc(Cl)c2=O)cc1 [Compound 3, 3-chloro-5-(4-methylphenoxy)-4H--1,2,6-thiadiazin-4-one]	4 (80-100)	4 (80-100)	0 (0-10)	0 (0-10)	4 (80-100)	4 (80-100)	4 (80-100)	1 (10-40)	4 (80-100)	1 (10-40)	0 (0-10)	0 (0-10)						
CC(C)(C)c1ccc(Oc2nsnc(Cl)c2=O)cc1 [Compound 4, 3-chloro-5-(4-tert-butylphnoxy)-4H--1,2,6-thiadiazin-4-one]	4 (80-100)	4 (80-100)	4 (80-100)	4 (80-100)	4 (80-100)	3 (60-80)	2 (40-60)	0 (0-10)	4 (80-100)	4 (80-100)	0 (0-10)	0 (0-10)						
COc1ccc(Oc2nsnc(Cl)c2=O)cc1 [Compound 5, 3-chloro-5-(4-methoxyphenoxy)4H--1,2,6-thiadiazin-4-one]	2 (40-60)	0 (0-10)	0 (0-10)	0 (0-10)	4 (80-100)	4 (80-100)	4 (80-100)	0 (0-10)	1 (10-40)	1 (10-40)	0 (0-10)	0 (0-10)						
CCCCOc1ccc(Oc2nsnc(Cl)c2=O)cc1 [Compound 6, 3-chloro-5-(4-n-butoxyphenoxy)-4H--1,2,6-thiadiazin-4-one]	4 (80-100)	4 (80-100)	4 (80-100)	4 (80-100)	0 (0-10)	0 (0-10)	0 (0-10)	0 (0-10)	1 (10-40)	0 (0-10)	0 (0-10)	0 (0-10)						
CCOC(=O)c1ccc(Oc2nsnc(Cl)c2=O)cc1 [Compound 7, 3-chloro-5-(4-ethoxycarbonylphenoxy)-4H--1,2,6-thiadiazin-4-one]	4 (80-100)	4 (80-100)	4 (80-100)	4 (80-100)	4 (80-100)	3 (60-80)	2 (40-60)	0 (0-10)	0 (0-10)	0 (0-10)	0 (0-10)	0 (0-10)						
CC(=O)Nc1ccc(Oc2nsnc(Cl)c2=O)cc1 [Compound 8, 5-(4-acetylaminophenoxy)-3-chloro-4H--1,2,6-thiadiazin-4-one]	3 (60-80)	2 (40-60)	2 (40-60)	0 (0-10)	4 (80-100)	4 (80-100)	4 (80-100)	2 (40-60)	4 (80-100)	4 (80-100)	0 (0-10)	0 (0-10)						
O=c1c(Cl)nsnc1Oc1ccc([N+](=O)[O-])cc1 [Compound 9, 3-chloro-5-(4-nitrophenoxy)-4H--1,2,6-thiadiazin-4-one]	0 (0-10)	0 (0-10)	0 (0-10)	0 (0-10)	4 (80-100)	4 (80-100)	4 (80-100)	4 (80-100)	0 (0-10)	0 (0-10)	0 (0-10)	0 (0-10)						
N#Cc1ccc(Oc2nsnc(Cl)c2=O)cc1 [Compound 10, 3-chloro-5-(4-cyanophenoxy)-4H--1,2,6-thiadiazin-4-one]	1 (10-40)	1 (10-40)	1 (10-40)	1 (10-40)	2 (40-60)	2 (40-60)	2 (40-60)	1 (10-40)	0 (0-10)	0 (0-10)	0 (0-10)	0 (0-10)						
O=c1c(Cl)nsnc1Oc1ccc(F)cc1 [Compound 11, 3-chloro-5-(4-fluorophenoxy)-4H--1,2,6-thiadiazin-4-one]	4 (80-100)	0 (0-10)	0 (0-10)	0 (0-10)	0 (0-10)	0 (0-10)	0 (0-10)	0 (0-10)	4 (80-100)	0 (0-10)	0 (0-10)	0 (0-10)						
O=c1c(Cl)nsnc1Oc1ccc(Cl)cc1 [Compound 12, 3-chloro-5-(4-chlorophenoxy)-4H--1,2,6-thiadiazin-4-one]	3 (60-80)	1 (10-40)	1 (10-40)	0 (0-10)	4 (80-100)	4 (80-100)	2 (40-60)	0 (0-10)	1 (10-40)	1 (10-40)	0 (0-10)	0 (0-10)						
O=c1c(Cl)nsnc1Oc1cccc(Cl)c1 [Compound 13, 3-chloro-5-(3-chlorophenoxy)-4H--1,2,6-thiadiazin-4-one]	2 (40-60)	0 (0-10)	0 (0-10)	0 (0-10)	4 (80-100)	2 (40-60)	0 (0-10)	0 (0-10)	0 (0-10)	0 (0-10)	0 (0-10)	0 (0-10)						
O=c1c(Cl)nsnc1Oc1ccccc1Cl [Compound 14, 3-chloro-5-(2-chlorophenoxy)-4H--1,2,6-thiadiazin-4-one]	3 (60-80)	2 (40-60)	0 (0-10)	0 (0-10)	4 (80-100)	4 (80-100)	2 (40-60)	0 (0-10)	0 (0-10)	0 (0-10)	0 (0-10)	0 (0-10)						
O=c1c(Cl)nsnc1Oc1ccc(Br)cc1 [Compound 15, 3-chloro-5-(4-bromophenoxy)-4H--1,2,6-thiadiazin-4-one]	4 (80-100)	1 (10-40)	0 (0-10)	0 (0-10)	4 (80-100)	1 (10-40)	0 (0-10)	0 (0-10)	1 (10-40)	0 (0-10)	0 (0-10)	0 (0-10)						
O=c1c(Cl)nsnc1Oc1ccc(Cl)c(Cl)c1 [Compound 16, 3-chloro-5-(3,4-dichlorophenoxy)-4H--1,2,6-thiadiazin-4-one]	1 (10-40)	0 (0-10)	0 (0-10)	0 (0-10)	4 (80-100)	3 (60-80)	1 (10-40)	4 (80-100)	1 (10-40)	0 (0-10)	0 (0-10)	0 (0-10)						
O=c1c(Cl)nsnc1Oc1ccc(Cl)cc1Cl [Compound 17, 3-chloro-5-(2,4-dichlorophenoxy)-4H--1,2,6-thiadiazin-4-one]	2 (40-60)	1 (10-40)	0 (0-10)	0 (0-10)	3 (60-80)	1 (10-40)	0 (0-10)	0 (0-10)	0 (0-10)	0 (0-10)	0 (0-10)	0 (0-10)						
Nc1ccc(Oc2nsnc(Cl)c2=O)cc1 [Compound 27, 5-(4-aminophenoxy)-3-chloro-4H--1,2,6-thiadiazine-4-one hydrochloride]													4 (80-100)	3 (60-80)	4 (80-100)	1 (10-40)	1 (10-40)	0 (0-10)

Reference: patent US4450269A, “Mono-5-substituted-3-chloro-4H-1,2,6-thiadiazin-4-one antifungal agents” (FMC Corporation, priority 1980, dated 1984)
